The values that follow come from US4145419A, “Novel imidazobenzoxazines” (Roussel Uclaf, priority 1976, dated 1979).

Read-outs that look alike come from different tables or passages of the source. Some results are limits rather than exact numbers.

The test concerns passive cutaneous anaphylaxis. Description: Passive Cutaneous Anaphylaxis (PCA) in Rats. The note with it: Rattus norvegicus, dosed immediately prior to intravenous antigen challenge, read-out: ED50 (dose of drug giving 50% inhibition). The format is in vivo. From the text:
Passive Cutaneous Anaphylaxis (PCA) in Rats
Cutaneous anaphylaxis can be induced in rats by intradermal (ID) sensitization with antiserum followed three days later by systemic challenge with antigen. Evans blue dye injected with the antigen is used as a marker to assess the severity of the local response. Anti-allergic drugs inhibit this reaction. This method has been described by OVARY (1962) "Passive Cutaneous Anaphylaxis in Allergology" Page 358-367 Ed. Brown: Pergamon Press:-male rats weighing 180-220 grams are used in groups of seven.
Preparation of Antigen for Sensitization (Alum precipitated ovalbumen)
1. Wash 120 grams of Al(OH)3 gel in 140 ml of saline (use of a macerater facilitates mixing).
2. Centrifuge at 3,000 r.p.m. for about 10 minutes.
3. Resuspend the precipitate with 300 ml of albumen egg powder (1.3 mg/ml) in saline and allow to stand for 30 minutes.
4. Centrifuge at 3,000 r.p.m. for 10 minutes.
5. Weigh the wet precipitate and to each gram weight add 1 ml of saline. Store in refrigerator (Quantity sufficient for 60 rats for a 3 day sensitization program).
Preparation of Antiserum (anti-ovalbumen)
1 ml of the alum precipitated ovalbumen was injected subcutaneously into rats weighing 180-200 grams on days 0,2,4. The rats were bled on day 14 either by cardiac puncture or via the dorsal abdominal aorta. Equal quantities of serum from each animal were pooled and thoroughly mixed and 2 ml aliquots were stored at -20° C. in plastic tubes.
The antiserum for sensitization was diluted so that an ID injection of 0.1 ml into control animals would give an average score of a single spot of between 2.0-3.5 using a 4 point scoring system.
(A) SENSITIZATION: The rats were anaesthetized with Nembutal (40-60 mg/kg i.p.) and were then sensitized by four ID injections (0.1 ml each) on their shaved backs. The animals were then left for a period of three days to develop sensitization.
(B) CHALLENGE: The sensitized rats were dosed orally or intraveneously with the drug immediately prior to intraveneous challage via the superficial penile vein with 1 ml of an antigen/Evans blue mixture (1 mg albumen egg powder in 0.5 ml saline plus 0.5 ml of 1% Evans blue). The injection were speeded up by using an automatic 1 ml self-filling glass syringe. The "challenged" rats were killed after 30 minutes, (usually pithed) and their skin on the dorsal surface was removed. The degree and area of blueing, proportional to the anaphylactic reaction was assessed on a four point scoring system.
1. Total scores for sites 1,2,3 and 4 = X
2. mean value of X for each group = X
3. x t = X for test group X c = X for control group
4. % inhibition = X c - X t/X c X 100/1
5. ed50 = dose of drug giving 50% inhibition.
ED50 values for the compounds tested in the passive cutaneous anaphylaxis screen (in rats) are as follows: […]

For the compound `O=C(O)C(=O)Nc1ccc2c(c1)-n1cc(C(=O)O)nc1CO2` [Example 12, 8-oxalamino-4H-imidazo-[2,1-c][1,4]-benzoxazine-2-carboxylic acid], the ED50 (in general, the dose at which the effect has come halfway, by size or by number of responders) (po, P.O.) was determined as 3.85 mg/kg.
For the compound `O=C(OCCN1CCOCC1)c1cn2c(n1)COc1ccccc1-2` [Example 5, 2-morpholinoethyl 4H-imidazo-[2,1-c][1,4]-benzoxazine-2-carboxylate], the ED50 by setting is: (I.V.) 1.75 mg/kg; (po, P.O.) 10.7 mg/kg.
`CC(=O)Nc1ccc2c(c1)-n1cc(C(=O)O)nc1CO2` [Example 11, 8-acetamido-4H-imidazo-[2,1-c][1,4]-benzoxazine-2-carboxylic acid]: the ED50 (I.V.) is 0.073 mg/kg and the ED50 (po, P.O.) is more than 10 mg/kg.
With `O=C(O)c1cn2c(n1)COc1ccc([N+](=O)[O-])cc1-2` [Example 10, 8-nitro-4H-imidazo-[2,1-c][1,4]-benzoxazine-2-carboxylic acid], the ED50 (I.V.) was 2.2 mg/kg.
As to `O=C(O)c1cn2c(n1)COc1ccccc1-2` [Example 2, 4H-imidazo-[2,1-c][1,4]-benzoxazine-2-carboxylic acid], the ED50 is 1.95 mg/kg (I.V.) and 2.88 mg/kg (po, P.O.).
With `COC(=O)c1cn2c(n1)COc1ccccc1-2` [Example 1, methyl 4H-imidazo-[2,1-c][1,4]-benzoxazine-2-carboxylate], under “po, P.O.”, the ED50 amounted to 10.8 mg/kg.
